Results published in ChEMBL document CHEMBL1151087, “N-sulfonyl derivatives of 6,7-dichloro 3,4-dihydro-3-oxo-quinoxalinecarboxylate as glycine-site NMDA and AMPA antagonists” (Bioorg Med Chem Lett, 1993).
pIC50: −log10 of the molar value.

Key:
Rattus norvegicus = organism: Rattus norvegicus; test: Tested for the ability to suppress the spontaneous epileptiform discharge rate in a cortical wedge model; assay type: functional, organism-based
[1] = Partition coefficient was measured using a shake flask method with octanol/buffer at physiological pH; assay type: physicochemical
[2] = molecular target: Glutamate receptor ionotropic AMPA (Homo sapiens, UniProt P42261+P42262+P42263+P48058)
Description: Tested for the affinity to the Ionotropic glutamate receptor AMPA using [3H]-AMPA as radioligand

[3] = molecular target: Glutamate [NMDA] receptor; test: Tested for the affinity to the glycine site -NMDA receptor using [3H]Gly as radioligand.; assay type: protein-complex assay

| Compound | pIC50 (Rattus norvegicus) | logD [1] | pIC50 [2] | pIC50 [3] |
| --- | --- | --- | --- | --- |
| O=C(NS(=O)(=O)c1ccccc1)c1nc2cc(Cl)c(Cl)cc2[nH]c1=O | 4.96 | 0.15 | 5.37 | 6.92 |
| O=C(O)c1cc(O)c2c(Cl)cc(Cl)cc2n1 | 5.30 | -0.56 | < 4.00 | 7.17 |
| O=c1[nH]c2cc([N+](=O)[O-])c([N+](=O)[O-])cc2[nH]c1=O [DNQX] |  | 0.09 | 6.70 | 6.08 |
| NS(=O)(=O)c1cccc2c1c([N+](=O)[O-])cc1nc(O)c(O)nc12 [NBQX] |  |  |  | < 4.00 |
| O=C(O)c1nc2cc(Cl)c(Cl)cc2nc1O [6,7-DICHLORO-3-HYDROXY-2-QUINOXALINECARBOXYLIC ACID] |  | -1 | 5.17 | 6.34 |
| CS(=O)(=O)NC(=O)c1nc2cc(Cl)c(Cl)cc2nc1O | 4.96 | -1.1 | 4.85 | 6.44 |
